According to article PMC3486420, “In Vitro and In Vivo Characterizations of Chiglitazar, a Newly Identified PPAR Pan-Agonist” (PPAR Research, 2012):
One block for each compound: values may come before it.

Legend:
RAW267.4 cells = test: Gene expression by RT-PCR in RAW267.4 cells; format: cell-based, mouse; settings: 48 h, 10 μM chiglitazar; for Expression of PPARα and/or PPARδ downstream gene SRA: 50 μM WY14643, 5 μM 2-Bro, compared with rosiglitazone 10 μM
Source text: (§1) cDNAs for human retinoid X receptor (hRXR), PPARα, PPARγ, and PPARδ were obtained by reverse transcriptase polymerase chain reaction (RT-PCR) from human liver or adipose tissues. Amplified cDNAs were cloned into pcDNA3.1 expression vector (Invitrogen, Carlsbad, CA, USA). The integrity and fidelity of all constructs made were verified by DNA sequencing. Luciferase reporter plasmids, ACOX promoter for PPARγ and pHD(X3)-luc for PPARα, were kind gifts of Drs. TM McIntyre (University of Utah, USA) and RA Rachubinski (University of Alberta, Canada), respectively. PPRE-luc for PPARδ was constructed based on the previous report by insertion of the annealed oligonucleotides having four copies of the CYP4A6 PPRE (4 × […]) into the upstream of the luciferase coding sequence in pGL3-promoter vector (Promega, Madison, WI, USA). pCMVβGal was purchased from Clontech (Palo Alto, CA, USA). The mouse 3T3-L1 preadipocyte cell line, skeletal muscle C2C12 cell line, and macrophage RAW267.4 cell line and the human osteosarcoma U2OS cell line were obtained from the American Type Culture Collection (ATCC, Rockville, MD, USA). The human hepatoma SMMC-7721 cell line was obtained from the Cell Culture Center of Chinese Academy of Medical Sciences (Beijing, China). Cell lines were cultured in medium of DMEM (3T3-L1, C2C12, and SMMC-7721), RPMI 1640 (RAW267.4), or McCoy's 5A (U2OS), containing 10% fetal bovine serum (FBS), 50 μg/mL streptomycin, and 50 units/mL penicillin at 37°C in a humidified incubator with 5% CO2.
(§2) Total RNA was extracted from cells or tissues with an RNeasy minikit (Qiagen, Valencia, CA, USA). The first-strand cDNA was synthesized using the oligo(dT) primers, followed by using SuperScript II reverse transcriptase (Invitrogen) according to the manufacturer's instructions. The PCR amplifications were performed in 10 μL of reaction mixture volume containing 0.8 μL of cDNA, 10 mM Tris-HCl (pH 8.3), 50 mM KCl, 1.5 mM MgCl2, 0.1% Triton X-100, 0.2 mM deoxynucleotide triphosphates, 0.4 μM primers, and 0.25 U of Taq polymerase (TaKaRa Biotechnology Co., Ltd, China). Taq DNA polymerase was added to each tube after a treatment of 2 min at 94°C. This was followed by 22–30 cycles of denaturation (23 s at 94°C), annealing (20 s at 55°C), extension (30 s at 72°C), and a final extension step of 2 min. PCR products were analyzed by electrophoresis on a 1.5% agarose gel stained with ethidium bromide.
(§3) Figure 1 In vitro regulation of gene expression by chiglitazar. (a) Endogenous expression of individual PPAR subtypes in cell lines. […]. The expression change of referred genes induced by different compounds was normalized against internal control (36B4 or GAPDH) and then compared with vehicle control treatment. The data shown are averaged from 3 independent experiments.

C2C12 cells = test: Gene expression by RT-PCR in C2C12 cells; format: cell-based, mouse; settings: 48 h, 10 μM chiglitazar, 50 μM WY14643, 5 μM 2-Bro, compared with rosiglitazone 10 μM
Source text: as §1
Total RNA was extracted from cells or tissues with an RNeasy minikit (Qiagen, Valencia, CA, USA). The first-strand cDNA was synthesized using the oligo(dT) primers, followed by using SuperScript II reverse transcriptase (Invitrogen) according to the manufacturer's instructions. […] PCR products were analyzed by electrophoresis on a 1.5% agarose gel stained with ethidium bromide. […]

SMMC-7721 cells = test: Gene expression by RT-PCR in SMMC-7721 cells; format: cell-based, human; settings: 48 h, 10 μM rosiglitazone, 10 μM chiglitazar; for Expression of LDL receptor (LDLR): 50 μM WY14643, 5 μM 2-Bro
Source text: as §1, §2, §3

PPARα [1] = target: T1, PPARα (Homo sapiens, UniProt Q07869); test: PPARα transactivation reporter gene assay in SMMC-7721 cells; format: cell-based
T1 sequence (Q07869 1-468): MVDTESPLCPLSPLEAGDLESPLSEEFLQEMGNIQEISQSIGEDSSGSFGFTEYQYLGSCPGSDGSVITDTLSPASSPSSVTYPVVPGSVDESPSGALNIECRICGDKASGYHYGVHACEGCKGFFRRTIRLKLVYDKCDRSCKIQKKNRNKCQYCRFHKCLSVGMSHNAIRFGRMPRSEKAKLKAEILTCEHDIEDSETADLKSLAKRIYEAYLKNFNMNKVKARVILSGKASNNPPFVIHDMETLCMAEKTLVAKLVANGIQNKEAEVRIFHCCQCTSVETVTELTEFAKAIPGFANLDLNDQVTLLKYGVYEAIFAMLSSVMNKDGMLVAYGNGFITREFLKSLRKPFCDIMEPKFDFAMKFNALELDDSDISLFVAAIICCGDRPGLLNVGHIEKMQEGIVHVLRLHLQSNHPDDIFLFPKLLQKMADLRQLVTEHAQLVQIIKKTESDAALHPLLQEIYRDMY
T1 sequence (P19793 1-462 partner): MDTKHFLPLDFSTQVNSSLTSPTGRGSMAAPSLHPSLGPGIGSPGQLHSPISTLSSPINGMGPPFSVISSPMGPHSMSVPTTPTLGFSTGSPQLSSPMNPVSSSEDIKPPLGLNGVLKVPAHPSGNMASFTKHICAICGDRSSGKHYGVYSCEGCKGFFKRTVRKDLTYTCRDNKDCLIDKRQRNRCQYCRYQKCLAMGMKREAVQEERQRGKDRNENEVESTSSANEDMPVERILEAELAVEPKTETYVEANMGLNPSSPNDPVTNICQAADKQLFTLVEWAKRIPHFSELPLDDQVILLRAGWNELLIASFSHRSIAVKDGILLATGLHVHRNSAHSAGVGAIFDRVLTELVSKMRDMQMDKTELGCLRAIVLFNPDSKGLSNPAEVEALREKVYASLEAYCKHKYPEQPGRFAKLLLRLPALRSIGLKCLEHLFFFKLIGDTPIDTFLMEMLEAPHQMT

PPARα [2] = target: T1, PPARα; test: PPARα transactivation reporter gene assay in U2OS cells; format: cell-based
rats = system: rats; design: method as in earlier work; settings: same length of treatment (6 months) ref 44, 45; cited from earlier work
3T3-L1 cells = test: Gene expression by RT-PCR in 3T3-L1 cells; format: cell-based, mouse; settings: 48 h, 10 μM rosiglitazone, 10 μM chiglitazar, vs vehicle
Source text: as §1, with “The human hepatoma SMMC-7721 cell line was obtained from the Cell Culture Center of Chinese Academy of Medical Sciences (Beijing, China). Cell lines were cultured in medium of DMEM (3T3-L1, C2C12, and SMMC-7721), RPMI 1640 (RAW267.4), or McCoy's 5A (U2OS), containing 10% fetal bovine serum (FBS), 50 μg/mL streptomycin, and 50 units/mL penicillin at 37°C in a humidified incubator with 5% CO2.” left out
Total RNA was extracted from cells or tissues with an RNeasy minikit (Qiagen, Valencia, CA, USA). […] PCR products were analyzed by electrophoresis on a 1.5% agarose gel stained with ethidium bromide. […]

KKAy mice = test: Gene expression by RT-PCR in tissues of treated KKAy mice; format: in vivo, mouse; settings: 12 days oral
Description: as §2
Male db/db mice (BKS.Cg-m +/+ LEPR^db) in 6-7 weeks were purchased from The Jackson Laboratory (Bar Harbor, ME, USA). Male KKAy and C57BL/6J mice in 8–10 weeks were obtained from the Institute of Animal Science, Chinese Academy of Medical Sciences and Peking Union Medical College (Beijing, China). Animals were randomly sorted into different treatment groups (8–10 per group). […]. Plasma glucose levels were examined at various time points by Accu-Chek Advantage II Glucose Strips (Roche Diagnostics, Basel, Switzerland) and measured by Accu-Chek Advantage (Roche Diagnostics). Animals were sacrificed 24 h after the last dosing and abdominal fat pad, liver, and skeletal muscle from KKAy mice and abdominal fat pad from db/db mice were taken for gene expression analysis.
Figure 3 In vivo regulation of gene expression by chiglitazar. […]. Equal amount of total RNA from each mouse in the same group was mixed and subjected to RT-PCR analysis for the indicated genes. […]. Total RNA was isolated from individual animal tissues and subjected to the RT-PCR analysis independently for the indicated genes.

PPARγ [3] = target: T2, PPARγ (Homo sapiens, UniProt P37231); test: PPARγ transactivation reporter gene assay in U2OS cells; format: cell-based; settings: 24 h treatment, luciferase reporter, hRXR cotransfected, ia: inactive at 10 μM
T2 construct: expressed in transfected cells; host or cells: SMMC-7721 or U2OS
T2 sequence (P37231 1-505): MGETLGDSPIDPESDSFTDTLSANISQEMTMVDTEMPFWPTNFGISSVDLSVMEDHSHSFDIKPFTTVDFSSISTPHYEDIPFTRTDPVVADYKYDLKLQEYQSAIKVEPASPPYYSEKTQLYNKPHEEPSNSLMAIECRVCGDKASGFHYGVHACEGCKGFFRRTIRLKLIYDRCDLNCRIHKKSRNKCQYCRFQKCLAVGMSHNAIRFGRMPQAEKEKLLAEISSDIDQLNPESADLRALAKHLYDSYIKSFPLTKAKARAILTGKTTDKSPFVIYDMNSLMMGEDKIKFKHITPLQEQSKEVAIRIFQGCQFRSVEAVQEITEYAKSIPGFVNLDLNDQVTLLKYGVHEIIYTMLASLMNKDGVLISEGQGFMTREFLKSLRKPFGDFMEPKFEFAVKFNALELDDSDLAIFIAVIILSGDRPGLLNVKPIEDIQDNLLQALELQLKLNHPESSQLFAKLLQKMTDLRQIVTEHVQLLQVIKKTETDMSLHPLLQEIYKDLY
T2 sequence (P19793 1-462 partner): T1 sequence (P19793 1-462 partner)

PPARδ [4] = target: T3, PPARδ (Homo sapiens, UniProt Q03181); test: PPARδ transactivation reporter gene assay in SMMC-7721 cells; format: cell-based
T3 construct: expressed in transfected cells; host or cells: SMMC-7721 or U2OS
T3 sequence (Q03181 1-441): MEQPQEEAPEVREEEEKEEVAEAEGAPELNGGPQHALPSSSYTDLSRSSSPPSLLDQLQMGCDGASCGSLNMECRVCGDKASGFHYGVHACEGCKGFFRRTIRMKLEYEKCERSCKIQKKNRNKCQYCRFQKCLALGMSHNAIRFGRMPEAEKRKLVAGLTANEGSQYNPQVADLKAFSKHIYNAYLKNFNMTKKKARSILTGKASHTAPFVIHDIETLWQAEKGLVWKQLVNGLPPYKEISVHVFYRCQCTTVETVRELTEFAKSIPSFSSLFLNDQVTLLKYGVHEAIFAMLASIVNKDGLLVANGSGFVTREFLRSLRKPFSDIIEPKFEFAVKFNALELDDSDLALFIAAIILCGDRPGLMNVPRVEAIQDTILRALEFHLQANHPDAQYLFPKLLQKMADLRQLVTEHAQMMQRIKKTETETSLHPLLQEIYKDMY
T3 sequence (P19793 1-462 partner): T1 sequence (P19793 1-462 partner)

PPARδ [5] = target: T3, PPARδ; test: PPARδ transactivation reporter gene assay in U2OS cells; format: cell-based
PPARγ [6] = target: T2, PPARγ; test: PPARγ transactivation reporter gene assay in SMMC-7721 cells; format: cell-based
[7] = max response compared with WY at 50 μM
[8] = chiglitazar 20 mg kg^−1, rosiglitazone 5 mg kg^−1
[9] = 24 h treatment, luciferase reporter, hRXR cotransfected, ia: inactive at 10 μM

PPARα % Max (PPARα [1]; [7]): 100%
PPARα % Max (PPARα [2]; [7]): 100%
SMILES: Cc1cccc(Nc2cc(Cl)nc(SCC(=O)O)n2)c1C [WY, WY14643]
Expression of PPARα and/or PPARδ downstream gene SRA (RAW267.4 cells): more significantly upregulated
Expression of PPARα and/or PPARδ downstream genes CPT-1a and CPT-1b (C2C12 cells): more significantly upregulated
Expression of LDL receptor (LDLR) (SMMC-7721 cells): downregulated

SMILES: CN(CCOc1ccc(CC2SC(=O)NC2=O)cc1)c1ccccn1 (centres unmarked) [Ros, rosiglitazone, reference compound]
Expression of PPARγ downstream gene CD36 (RAW267.4 cells; 10 μM rosiglitazone, vs vehicle): upregulated
Dose observed to induce heart weight increase (rats): 5 mg/kg
Expression of PPARγ downstream genes AOX, LIPC and HSL (SMMC-7721 cells; vs vehicle): upregulated
Expression of LDL receptor (LDLR) (SMMC-7721 cells): downregulated
Expression of PPARγ downstream genes SREBP1 and adiponectin (3T3-L1 cells): upregulated
Expression of ACADL, HSL, GLUT4 and PPARγ in liver and skeletal muscle (KKAy mice; [8]): not affected
Expression of genes involved in PPARγ-mediated insulin sensitization in adipose tissue (KKAy mice; [8]): almost identically up-regulated
Expression of Adiponectin and CD36 in liver and skeletal muscle (KKAy mice; rosiglitazone 5 mg kg^−1 vs chiglitazar 20 mg kg^−1): more upregulated

SMILES: CCCCCCCCCCCCCCC(Br)C(=O)O (centres unmarked) [2-Bro, 2-bromohexadecanoic acid, reference compound]
PPARγ EC50 (PPARγ [3]): ia
Expression of PPARα and/or PPARδ downstream gene SRA (RAW267.4 cells): more significantly upregulated
EC50 (PPARδ [4]): 5.1 ± 0.9 µM
PPARδ % Max (PPARδ [4]; SMMC-7721 cells, max response compared with 2-Bro at 10 μM): 100%
Expression of PPARα and/or PPARδ downstream genes CPT-1a and CPT-1b (C2C12 cells): more significantly upregulated
Expression of LDL receptor (LDLR) (SMMC-7721 cells): significantly upregulated
PPARα EC50 (PPARα [1]; [9]): ia^2
PPARα EC50 (PPARα [2]; [9]): ia
EC50 (PPARδ [5]): 9.2 ± 0.8 µM
PPARδ % Max (PPARδ [5]; U2OS cells, max response compared with 2-Bro at 10 μM): 100%
EC50 (PPARγ [6]): 5.5 ± 1.7 µM
PPARγ % Max (PPARγ [6]; SMMC-7721 cells, max response compared with Ros at 1 μM): 14%

SMILES: CCc1ccc(CCOc2ccc(CC3SC(=O)NC3=O)cc2)nc1 (centres unmarked) [Pio, pioglitazone]
Dose observed to induce heart weight increase (rats): 4 mg/kg
